This test addresses isomerase (Mus musculus (Mouse), UniProt Q91ZQ5). The test is described as follows: In vivo murine isomerase assay (recovery of 11-cis-retinal after photobleaching). More on the design: species or system CD-1 (albino) male mice. Particulars: mouse, po, 10 mg/kg oral gavage, negative numbers leveled to 0%. Here is the method:
The capability of styrenyl derivatives to inhibit isomerase is determined by an in vivo murine isomerase assay. Brief exposure of the eye to intense light (“photobleaching” of the visual pigment or simply “bleaching”) is known to photo-isomerize almost all 11-cis-retinal in the retina. The recovery of 11-cis-retinal after bleaching can be used to estimate the activity of isomerase in vivo. Procedures were performed essentially as described by Golczak et al., Proc. Natl. Acad. Sci. USA 102:8162-67 (2005). See also Deigner et al., Science, 244: 968-71 (1989); Gollapalli et al., Biochim Biophys Acta. 1651: 93-101 (2003); Parish, et al., Proc. Natl. Acad. Sci. USA, 14609-13 (1998); Radu, et al., Proc Natl Acad Sci USA 101: 5928-33 (2004). […] Mice were gavaged with styrenyl derivative compounds, Compound 1 or Compound 25. Compound B was included as a positive control, and Compound A with low activity was also included. After 1-72 hours in the dark, the mice were exposed to photobleaching of 3,000 lux of white light for 10 minutes. The mice were allowed to recover 2 hours in the dark. The animals were then sacrificed by carbon dioxide inhalation. Retinoids were extracted from the eye and the regeneration of 11-cis-retinal was assessed at various time intervals. All steps were performed in darkness with minimal redlight illumination (low light darkroom lights and […] flashlights for spot illumination as needed) (see, e.g., Maeda et al., J. Neurochem 85:944-956, 2003; Van Hooser et al., J Biol Chem 277:19173-82, 2002). After the mice were sacrificed, the eyes were immediately removed and placed in liquid nitrogen. The eyes were then homogenized in a glass/glass homogenizer (Kontes Glass Co., homogenizer & pestle 21) containing 1 ml retinoid analysis buffer (50 mM MOPS, 10 mM NH2OH, 50% EtOH, pH 7.0 (stock buffer was stored in absence of ethanol)). The eyes were homogenized until no visible tissue remained (approximately 3 minutes). The samples were incubated 20 minutes at room temperature (including homogenizing) and then placed on ice. One ml cold EtOH was added to the homogenate to rinse the pestle, and the homogenate mixture was transferred to 7 ml glass screwtop tubes on ice. The homogenizer was rinsed with 7 ml hexane, which was added to the 7 ml tubes on ice. The homogenate was mixed by vortexing at high speed for 1 minute. The phases were separated by centrifugation (5 minutes at 4000 rpm, 4° C.). The upper phase was collected and transferred to a clean glass test tube, taking care to avoid disturbing the interface by leaving approximately 0.2 ml of upper phase in the tube. The tubes with the collected upper phase were placed in a heating block at 25° C. and dried under a stream of Argon ( 30 minutes). The lower phase was again extracted by adding 4 ml hexane, vortexing, and separating the phases by centrifugation. The upper phase was collected as described above and pooled into the drying tubes. The dried samples were solubilized in 300 μl Hexane (Fisher Optima grade) and vortexed lightly. The samples were transferred to clean 300 μl glass inserts in HPLC vials using glass pipette and the vials were crimped shut tightly. […] Part #235341). […] The area under the curve for 11-cis retinal oxime was calculated by Agilent Chemstation software and was recorded manually. Data processing was performed using Prizm software. Positive control mice (no compound administered) were sacrificed fully dark-adapted and the eye retinoids analyzed. Light (bleached) control mice (no compound administered) were sacrificed and retinoids isolated and analyzed immediately after light treatment.

isomerase, sequence (Q91ZQ5 whole entry): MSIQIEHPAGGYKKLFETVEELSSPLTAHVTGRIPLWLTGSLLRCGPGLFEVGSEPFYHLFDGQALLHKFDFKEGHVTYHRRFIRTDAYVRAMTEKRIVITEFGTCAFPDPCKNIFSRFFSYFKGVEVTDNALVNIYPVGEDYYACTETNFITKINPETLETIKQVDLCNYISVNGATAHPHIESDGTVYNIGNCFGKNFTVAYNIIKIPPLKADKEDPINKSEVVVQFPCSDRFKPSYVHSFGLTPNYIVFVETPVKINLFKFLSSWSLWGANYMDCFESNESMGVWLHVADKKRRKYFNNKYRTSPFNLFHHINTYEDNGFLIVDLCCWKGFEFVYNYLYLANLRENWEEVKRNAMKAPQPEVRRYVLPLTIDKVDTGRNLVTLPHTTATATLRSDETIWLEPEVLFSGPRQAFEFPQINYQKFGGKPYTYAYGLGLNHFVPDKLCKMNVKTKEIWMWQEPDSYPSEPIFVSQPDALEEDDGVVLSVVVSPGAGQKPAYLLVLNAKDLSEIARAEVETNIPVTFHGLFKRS

Consider `CNCCCc1cccc(/C=C/c2c(C)cccc2C)c1` [Example 7, (E)-3-(3-(2,6-dimethylstyryl)phenyl)-N-methylpropan-1-amine], for which the inhibition (commonly the percentage by which the read-out fell short of the control) at 10 mg/kg reads like this: (4 h) 36%; (24 h) 8%.

(Values after patent publication US10201545B2, “Styrenyl derivative compounds for treating ophthalmic diseases and disorders” (Acucela Inc., priority 2007, dated 2019).)
